Measurements as given in EPA's ToxValDB 9.5 (doi:10.2903/j.efsa.2008.125r).
In brackets after ≈: the same amount, converted by molar mass.

Assays:
Colinus virginianus = details: for LD50: acute, oral, mortality
Daphnia magna = details: chronic/long-term; duration: 21 days; reproduction
Apis mellifera = details: acute; duration: 48 hours; oral; unspecified; mortality
Tagia sp. = details: acute; duration: 14 days; mortality
Canidae = details: chronic; duration: 1 years; oral; Dog Other; hematological
Coturnix japonica = details: acute, oral, mortality
Oncorhynchus mykiss = details: acute; duration: 96 hours; mortality
Anas platyrhynchos = details: for LD50: oral, mortality

For `CCCCCCCCCCCCC1=C(OC(C)=O)C(=O)c2ccccc2C1=O` [Acequinocyl], the LD50 (Colinus virginianus; diet) was greater than 159 mg/kg, the LD50 (Colinus virginianus) was greater than 300 mg/kg and the NOEL (Colinus virginianus; reproduction developmental) was 217 mg/kg-day. The NOAEL (Rattus norvegicus; acute, oral, hematological) was 8 mg/kg-day, the LD50 (Rattus norvegicus; acute, oral, mortality) was greater than 4860 mg/kg and the NOAEL (Rattus norvegicus; chronic, duration: 2 years, clinical signs) was 2.3 mg/kg-day. The NOAEL (Rattus norvegicus; reproduction developmental, clinical signs) was 6.9 mg/kg-day, the NOEC (Daphnia magna) was 0.00098 mg/L and the LD50 (Apis mellifera) was greater than 100 µg/piece. It also gave an LC50 (Tagia sp.) greater than 1000 mg/kg, an NOAEL (Canidae) of 5 mg/kg-day and an LEL (Typhlodromus pyri; acute, duration: 7 days, mortality) of 300 g/ha. It also gave an LEL (Typhlodromus pyri; not reported, reproduction) of 300 g/ha, an LD50 (Coturnix japonica; diet) greater than 847 mg/kg and an LD50 (Coturnix japonica) greater than 1940 mg/kg. It also gave an LC50 (Oncorhynchus mykiss) of 65 µg/mL (≈ 169 µM), an LD50 (Anas platyrhynchos; acute, unspecified) greater than 1940 mg/kg and an NOEL (Anas platyrhynchos; reproductive) of 7.48 mg/kg. For the same molecule, the LD50 (Anas platyrhynchos; short-term, feed) was greater than 1340 mg/kg.
